A word on the Kd: it is the concentration at which binding is half-saturated.

Here are results for 30 compounds from US20090181948A1, “DIAMINE DERIVATIVE” (KYOWA HAKKO KOGYO CO., LTD., priority 2005, published 2009).

The first experiment deals with T1, histamine H3 receptor (Rattus norvegicus, UniProt Q9QYN8).
T1 construct: from tissue; host or cells: rat striatum (Sprague-Dawley, male, 6 weeks), membrane homogenate
T1 sequence (Q9QYN8 whole entry): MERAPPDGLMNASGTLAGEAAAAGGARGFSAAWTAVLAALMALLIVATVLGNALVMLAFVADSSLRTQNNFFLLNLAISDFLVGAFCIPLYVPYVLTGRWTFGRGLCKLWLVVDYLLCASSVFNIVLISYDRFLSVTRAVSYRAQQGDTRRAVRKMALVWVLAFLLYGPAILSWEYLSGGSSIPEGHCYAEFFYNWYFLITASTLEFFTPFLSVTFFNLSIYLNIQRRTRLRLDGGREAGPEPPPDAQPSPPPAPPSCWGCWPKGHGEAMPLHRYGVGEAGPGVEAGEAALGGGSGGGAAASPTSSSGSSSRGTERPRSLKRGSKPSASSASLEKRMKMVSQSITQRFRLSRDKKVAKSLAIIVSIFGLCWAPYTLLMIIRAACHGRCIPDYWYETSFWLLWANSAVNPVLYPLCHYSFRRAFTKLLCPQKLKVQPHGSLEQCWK
Nature of the experiment: Histamine H3 receptor binding assay ([3H]-Nα-methylhistamine binding to rat striatum homogenate). The settings on record: 1 μmol/L test compound; [3H]-Nα-methylhistamine 1 nmol/L; striata of Sprague-Dawley male rats, 25° C., 1 hour; read-out: Inhibition ratio of [3H]-Nα-methylhistamine binding. The method, then:
To the striata of Sprague-Dawley male rats (6 weeks of age), a 10-fold volume of lysis buffer {50 mmol/L [[…] (Tris)]/HCl (pH 7.4), 5 mmol/L ethylenediaminetetraacetic acid (EDTA), a protease inhibitor mixture [1 mg/mL phenylmethylsulfonyl fluoride (PMSF), 1 μg/mL pepstatin A, 1 μg/mL leupeptin, 1 μg/mL chymostatin]} was added and the striata were homogenized. The resulting homogenate was centrifuged (30,000×g, 4° C., 30 min), and the obtained precipitate was resuspended in a 10-fold volume of lysis buffer, followed by centrifugation under the same condition. To the obtained precipitate, a 3-fold volume of lysis buffer was added to suspend the precipitate, and the resulting tissue homogenate was used for a test.
A test compound was dissolved in an assay buffer [50 mmol/L Tris/HCl (pH 7.4), 5 mmol/L EDTA], and [^3H]-N^α-methylhistamine (1 nmol/L) and the tissue homogenate (20 μg, in terms of protein amount) were added thereto, and then, the mixture was incubated at 25° C. for 1 hour. Then, the reaction was terminated by rapid suction filtration on a glass filter [GF/B: Whatman, previously soaked in 0.3 w/v % polyethylenimine for about 30 min]. Then, the glass filter was washed three times with 3 mL of assay buffer. This glass filter was transferred into a scintillation vial and dried at 60° C. for 30 minutes. Then, 0.5 mL of Ultimagold (Perkin Elmer) was added thereto, and the radioactivity (binding amount of [^3H]-N^α-methylhistamine) was measured using a liquid scintillation counter. The obtained value was used as a binding amount in the presence of the test compound. The same procedure as described above was carried out in the absence of the test compound, and the binding amount of [^3H]-N^α-methylhistamine obtained at this time was used as a binding amount in the absence of the test compound. Further, the binding amount of [^3H]-N^α-methylhistamine obtained in the presence of 10 μmol/L thioperamide was used as a non-specific binding amount. An inhibitory action of [^3H]-N^α-methylhistamine binding was represented by an inhibition ratio in terms of 1 μmol/L of the test compound calculated by the following Equation (1).
Inhibition ratio(%)={1−[(Binding amount in the presence of test compound)−(Non-specific binding amount)]/[(Binding amount in the absence of test compound)−(Non-specific binding amount)]}×100 (1)
As to `N#CC(C#N)=C1N(CCCN2CC=CCC2)CCN1CCCN1CCCCC1` [Compound 90, {1-[3-(1,2,3,6-Tetrahydropyridin-1-yl)propyl]-3-(3-piperidinopropyl)imidazolidin-2-ylidene}malononitrile], the inhibition at 1 µM is ≥ 80%.

On to `CC1CC(C)CN(CCN2CCN(CCCN3CCCCC3)C2=C(C#N)C#N)C1` (stereo not drawn) [Compound 13, {1-[2-(3,5-Dimethylpiperidino)ethyl]-3-(3-piperidinopropyl)imidazolidin-2-ylidene}malononitrile], for which the inhibition at 1 µM was ≥ 80%.

For the compound `N#CC(C#N)=C1N(CCCN2CC=CCC2)CCN1CCCN1CC=CCC1` [Compound 88, {1,3-bis[3-(1,2,3,6-Tetrahydropyridin-1-yl)propyl]imidazolidin-2-ylidene}malononitrile], the inhibition at 1 µM is ≥ 80%.

Turning to `CC1CCCN1CCCNC(=C(C#N)C#N)N1CCC(N2CCCCC2)CC1` (stereo not drawn) [Compound 170, {[3-(2-Methylpyrrolidin-1-yl)propylamino](4-piperidinopiperidino)methylene}malononitrile], the inhibition at 1 µM is ≥ 80%.

As for `CC(C)N1CCC(N2CCCN(CCCN3CCCCC3)C2=C(C#N)C#N)CC1` [Compound 238, [1-(1-Isopropylpiperidin-4-yl)-3-(3-piperidinopropyl)tetrahydropyrimidin-2-ylidene]malononitrile], the inhibition at 1 µM is ≥ 80%.

With `CC1CCCN1CCCN1CCN(CCCN2CCC(O)C2)C1=C(C#N)C#N` (stereo not drawn) [Compound 114, {1-[3-(3-Hydroxypyrrolidin-1-yl)propyl]-3-[3-(2-methylpyrrolidin-1-yl)propyl]imidazolidin-2-ylidene}malononitrile], the inhibition at 1 µM was ≥ 80%.

In the case of `CC1CCCN1CCCN1CCN(CCCN2CCCC2C)C1=NC#N` (stereo not drawn) [Compound 140, 1,3-Bis[3-(2-methylpyrrolidin-1-yl)propyl]imidazolidin-2-ylidenecyanoamide Difumarate], the inhibition at 1 µM is ≥ 80%.

Regarding `CC1CCCN1CCCNC(=C(C#N)C#N)N1CCC(CN2CCCC2C)CC1` (stereo not drawn) [Compound 174, {[4-(2-Methylpyrrolidin-1-ylmethyl)piperidino][3-(2-methylpyrrolidin-1-yl)propylamino]methylene}malononitrile], the inhibition at 1 µM is ≥ 80%.

Take `C[C@@H]1C[C@H](C)CN(CCN2CCN(CCCN3CC=CCC3)C2=C(C#N)C#N)C1` [Compound 27, {1-[3-(1,2,3,6-Tetrahydropyridin-1-yl)propyl]-3-[2-(cis-3,5-dimethylpiperidino)ethyl]imidazolidin-2-ylidene}malononitrile]: the inhibition at 1 µM was ≥ 80%.

With `N#CC(C#N)=C(NCCCN1CCCCC1)NCCCN1CCCCC1` [Compound 2, [Bis(3-piperidinopropylamino)methylene]malononitrile], the inhibition at 1 µM was ≥ 80%.

`C[C@@H]1CCCN1CCCCN1CCN(CCN2CCC[C@H]2C)C1=C(C#N)C#N` [Compound 191, {1-[4-((R)-2-methylpyrrolidin-1-yl)butyl]-3-[2-((R)-2-methylpyrrolidin-1-yl)ethyl]imidazolidin-2-ylidene}malononitrile]: the inhibition at 1 µM is ≥ 80%.

Consider `N#CC(C#N)=C1N(CCCN2CCCC2)CCN1CCCN1CCOCC1` [Compound 82, {1-(3-Morpholinopropyl)-3-[3-(pyrrolidin-1-yl)propyl]imidazolidin-2-ylidene}malononitrile], for which the inhibition at 1 µM is ≥ 80%.

On to `CC1CCCCN1CCCN1CCN(CCCN2CC=CCC2)C1=C(C#N)C#N` (stereo not drawn) [Compound 86, {1-[3-(1,2,3,6-Tetrahydropyridin-1-yl)propyl]-3-[3-(2-methylpiperidino)propyl]imidazolidin-2-ylidene}malononitrile], for which the inhibition at 1 µM was ≥ 80%.

Regarding `N#CC(C#N)=C1N(CCCN2CCCC2)CCN1CCCN1CCCC1` [Compound 94, {1,3-Bis[3-(pyrrolidin-1-yl)propyl]imidazolidin-2-ylidene}malononitrile], the inhibition at 1 µM was ≥ 80%.

Turning to `N#CC(C#N)=C1N(CCCN2CCC(C#N)CC2)CCN1CCN1CCCCC1` [Compound 40, {1-[3-(4-Cyanopiperidino)propyl]-3-(2-piperidinoethyl)imidazolidin-2-ylidene}malononitrile], the inhibition at 1 µM was ≥ 80%.

`CC1CCCN1CCCN1CCN(C2CCN(Cc3ccccc3)CC2)C1=C(C#N)C#N` (stereo not drawn) [Compound 127, {1-(1-Benzylpiperidin-4-yl)-3-[3-(2-methylpyrrolidin-1-yl)propyl]imidazolidin-2-ylidene}malononitrile]: the inhibition at 1 µM was ≥ 80%.

With `CC(C)N1CCC(NC(=C(C#N)C#N)N2CCC(CN3CCCCC3)CC2)CC1` [Compound 178, [(1-Isopropylpiperidin-4-ylamino)(4-piperidinomethylpiperidino)methylene]malononitrile], the inhibition at 1 µM was ≥ 80%.

Regarding `CC1CCCN1CC1CCN(C(=C(C#N)C#N)N(C)CCN2CCC[C@H]2C)CC1` (stereo partly drawn) [Compound 155, ({N-methyl-N-[2-((R)-2-methylpyrrolidin-1-yl)ethyl]amino}[4-(2-methylpyrrolidin-1-ylmethyl)piperidino]methylene)malononitrile], the inhibition at 1 µM was ≥ 80%.

With `CC1CCCN1CCCN1CCN(CCN2CCCCC2)C1=C(C#N)C#N` (stereo not drawn) [Compound 33, {1-[3-(2-Methylpyrrolidin-1-yl)propyl]-3-(2-piperidinoethyl)imidazolidin-2-ylidene}malononitrile], the inhibition at 1 µM is ≥ 80%.

Regarding `N#CC(C#N)=C1N(CCCN2CCCCC2)CCN1CCN1CCc2ccccc2C1` [Compound 53, {1-[2-(1,2,3,4-Tetrahydroisoquinolin-2-yl)ethyl]-3-(3-piperidinopropyl)imidazolidin-2-ylidene}malononitrile], the inhibition at 1 µM was ≥ 80%.

Regarding `N#CCN1CCC(N2CCN(CCCN3CCCCC3)C2=C(C#N)C#N)CC1` [Compound 214, [1-(1-Cyanomethylpiperidin-4-yl)-3-(3-piperidinopropyl)imidazolidin-2-ylidene]malononitrile], the inhibition at 1 µM is ≥ 80%.

For the compound `CC1CCCCN1CCCN1CCN(CCCN2CCCCC2)C1=C(C#N)C#N` (stereo not drawn) [Compound 98, {1-[3-(2-Methylpiperidino)propyl]-3-(3-piperidinopropyl)imidazolidin-2-ylidene}malononitrile], the inhibition at 1 µM is ≥ 80%.

As to `CC1CCCN(CCCN2CCN(CCCN3CC=CCC3)C2=C(C#N)C#N)C1` (stereo not drawn) [Compound 87, {1-[3-(1,2,3,6-Tetrahydropyridin-1-yl)propyl]-3-[3-(3-methylpiperidino)propyl]imidazolidin-2-ylidene}malononitrile], the inhibition at 1 µM was ≥ 80%.

Consider `CC1CC(C)CN(CCCN2CCN(CCCN3CCCCC3)C2=C(C#N)C#N)C1` (stereo not drawn) [Compound 102, {1-[3-(3,5-Dimethylpiperidino)propyl]-3-(3-piperidinopropyl)imidazolidin-2-ylidene}malononitrile], for which the inhibition at 1 µM is ≥ 80%.

Consider `CN(CCCN1CCC(F)(F)C1)C(=C(C#N)C#N)N1CCC(N2CCCCC2)CC1` [Compound 169, ({N-[3-(3,3-difluoropyrrolidin-1-yl)propyl]-N-methylamino}(4-piperidinopiperidino)methylene)malononitrile], for which the inhibition at 1 µM is ≥ 80%.

Turning to `CC1CCCN(CCCN2CCN(CCCN3CCCCC3)C2=C(C#N)C#N)C1` (stereo not drawn) [Compound 99, {1-[3-(3-Methylpiperidino)propyl]-3-(3-piperidinopropyl)imidazolidin-2-ylidene}malononitrile], the inhibition at 1 µM was ≥ 80%.

With `CC1CCCN(CCCN2CCN(CCCN3CCCC3C)C2=C(C#N)C#N)C1` (stereo not drawn) [Compound 112, {1-[3-(3-Methylpiperidino)propyl]-3-[3-(2-methylpyrrolidin-1-yl)propyl]imidazolidin-2-ylidene}malononitrile], the inhibition at 1 µM was ≥ 80%.

Consider `N#CC(C#N)=C1N(CCCN2CC=CCC2)CCN1CCCN1CCCCCC1` [Compound 68, {1-[3-(Azepan-1-yl)propyl]-3-[3-(1,2,3,6-tetrahydropyridin-1-yl)propyl]imidazolidin-2-ylidene}malononitrile], for which the inhibition at 1 µM was ≥ 80%.

On to `CC1CCCN(CCCN2CCN(CCCN3CC(C)CC(C)C3)C2=C(C#N)C#N)C1` (stereo not drawn) [Compound 105, {1-[3-(3,5-Dimethylpiperidino)propyl]-3-[3-(3-methylpiperidino)propyl]imidazolidin-2-ylidene}malononitrile], for which the inhibition at 1 µM is ≥ 80%.

Staying with this experiment, now noted: rat striatum homogenate; read-out: dissociation constant Kd of [3H]-Nα-methylhistamine binding to the rat H3 receptor.
Regarding `CNCCc1cnc[nH]1` [[^3H]-N^α-methylhistamine, reference compound], the Kd turned out to be 0.57 ± 0.04 nM.
